Results as given in PubChem BioAssay (NCI).
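How tested: cells in 96-well plates exposed to compound for 48 hours at five concentrations. Definition used: TGI = concentration required for complete inhibition of growth.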

Columns and labels:
Experiment in all cases: growth of human tumour cells (NCI), 48 h
BT-549 breast = tested on: BT-549 breast
NCI-H226 lung = tested on: NCI-H226 lung
MOLT-4 leukemia = tested on: MOLT-4 leukemia
HCC-2998 colon = tested on: HCC-2998 colon
NCI-H522 lung = tested on: NCI-H522 lung
SF-295 CNS = tested on: SF-295 CNS
OVCAR-8 ovarian = tested on: OVCAR-8 ovarian
SK-MEL-2 melanoma = tested on: SK-MEL-2 melanoma
KM12 colon = tested on: KM12 colon
DU-145 prostate = tested on: DU-145 prostate
OVCAR-3 ovarian = tested on: OVCAR-3 ovarian
SF-539 CNS = tested on: SF-539 CNS
786-0 renal = tested on: 786-0 renal
A549 NSCLC = tested on: A549 NSCLC
MDA-MB-435 = tested on: MDA-MB-435
HOP-92 NSCLC = tested on: HOP-92 NSCLC
HCT-15 colon = tested on: HCT-15 colon
OVCAR-4 ovarian = tested on: OVCAR-4 ovarian
PC-3 prostate = tested on: PC-3 prostate
HL-60(TB) leukemia = tested on: HL-60(TB) leukemia
COLO 205 colon = tested on: COLO 205 colon
RPMI-8226 leukemia = tested on: RPMI-8226 leukemia
UACC-257 melanoma = tested on: UACC-257 melanoma
HCT-116 colon = tested on: HCT-116 colon
RXF 393 renal = tested on: RXF 393 renal
HS 578T breast = tested on: HS 578T breast
MDA-N = tested on: MDA-N
UACC-62 melanoma = tested on: UACC-62 melanoma
TK-10 renal = tested on: TK-10 renal
CCRF-CEM leukemia = tested on: CCRF-CEM leukemia
CAKI-1 renal = tested on: CAKI-1 renal
M14 melanoma = tested on: M14 melanoma
NCI/ADR-RES ovarian = tested on: NCI/ADR-RES ovarian
ACHN renal = tested on: ACHN renal
SW-620 colon = tested on: SW-620 colon
UO-31 renal = tested on: UO-31 renal
T-47D breast = tested on: T-47D breast
MDA-MB-231 breast = tested on: MDA-MB-231 breast
NCI-H23 lung = tested on: NCI-H23 lung
OVCAR-5 ovarian = tested on: OVCAR-5 ovarian
SF-268 CNS = tested on: SF-268 CNS
K-562 leukemia = tested on: K-562 leukemia
SR leukemia = tested on: SR leukemia
SK-MEL-28 melanoma = tested on: SK-MEL-28 melanoma
SK-MEL-5 melanoma = tested on: SK-MEL-5 melanoma
SNB-19 CNS = tested on: SNB-19 CNS
NCI-H460 lung = tested on: NCI-H460 lung
HT29 colon = tested on: HT29 colon
SNB-75 CNS = tested on: SNB-75 CNS
A498 renal = tested on: A498 renal
MCF7 breast = tested on: MCF7 breast
SN12C renal = tested on: SN12C renal
LOX IMVI melanoma = tested on: LOX IMVI melanoma
EKVX NSCLC = tested on: EKVX NSCLC
U251 CNS = tested on: U251 CNS
SK-OV-3 ovarian = tested on: SK-OV-3 ovarian
HOP-62 NSCLC = tested on: HOP-62 NSCLC
IGROV1 ovarian = tested on: IGROV1 ovarian
MALME-3M melanoma = tested on: MALME-3M melanoma

`CC1=Cc2ccc(C)cc2C(=O)C1=O` showed a TGI (BT-549 breast) of 49.1 µM, a TGI (NCI-H226 lung) of over 100 µM and a TGI (MOLT-4 leukemia) of 6.13 µM. The TGI (HCC-2998 colon) was 30.8 µM, the TGI (NCI-H522 lung) was 4.15 µM and the TGI (SF-295 CNS) was 34.7 µM. For the same compound, the TGI (OVCAR-8 ovarian) was over 73.8 µM, the TGI (SK-MEL-2 melanoma) was 52.9 µM and the TGI (KM12 colon) was 34.5 µM. It also gave a TGI (DU-145 prostate) of 35.3 µM, a TGI (OVCAR-3 ovarian) of 49.4 µM and a TGI (SF-539 CNS) of 14.9 µM. The TGI (786-0 renal) was 3.81 µM, the TGI (A549 NSCLC) was 50.2 µM and the TGI (MDA-MB-435) was 4.27 µM. It also gave a TGI (HOP-92 NSCLC) of 17.6 µM, a TGI (HCT-15 colon) of 47.1 µM and a TGI (OVCAR-4 ovarian) of 32 µM. The TGI (PC-3 prostate) was 43 µM, the TGI (HL-60(TB) leukemia) was 4.13 µM and the TGI (COLO 205 colon) was 16.3 µM. It also gave a TGI (RPMI-8226 leukemia) of 7.34 µM, a TGI (UACC-257 melanoma) of 15.8 µM and a TGI (HCT-116 colon) of 10.8 µM. The TGI (RXF 393 renal) was 3.27 µM, the TGI (HS 578T breast) was over 65.1 µM and the TGI (MDA-N) was 11.9 µM. It also gave a TGI (UACC-62 melanoma) of 40.3 µM, a TGI (TK-10 renal) of 3.68 µM and a TGI (CCRF-CEM leukemia) of 1.98 µM. The TGI (CAKI-1 renal) was 36.3 µM, the TGI (M14 melanoma) was 10.5 µM and the TGI (NCI/ADR-RES ovarian) was 46.8 µM. It also gave a TGI (ACHN renal) of 4.14 µM, a TGI (SW-620 colon) of over 100 µM and a TGI (UO-31 renal) of 3.04 µM. It also gave a TGI (T-47D breast) of 5.36 µM, a TGI (MDA-MB-231 breast) of 59.6 µM and a TGI (NCI-H23 lung) of 45.3 µM. The TGI (OVCAR-5 ovarian) was 37.2 µM, the TGI (SF-268 CNS) was 27.5 µM and the TGI (K-562 leukemia) was over 23.9 µM. For the same compound, the TGI (SR leukemia) was 4.38 µM, the TGI (SK-MEL-28 melanoma) was 52.9 µM and the TGI (SK-MEL-5 melanoma) was 42.2 µM. It also gave a TGI (SNB-19 CNS) of 45.2 µM, a TGI (NCI-H460 lung) of 41 µM and a TGI (HT29 colon) of 49.3 µM. For the same compound, the TGI (SNB-75 CNS) was 21.8 µM, the TGI (A498 renal) was 51.6 µM and the TGI (MCF7 breast) was 54.5 µM. The TGI (SN12C renal) was 12.8 µM, the TGI (LOX IMVI melanoma) was 20.7 µM and the TGI (EKVX NSCLC) was 42.3 µM. The TGI (U251 CNS) was 45.2 µM, the TGI (SK-OV-3 ovarian) was 27 µM and the TGI (HOP-62 NSCLC) was 57 µM. The TGI (IGROV1 ovarian) was 29.4 µM.
Work on `Cc1nc(N)c(N2CCN(CN)CC2)c(=O)[nH]1` yielded a TGI (BT-549 breast) of over 100 µM, a TGI (NCI-H226 lung) of over 100 µM and a TGI (MOLT-4 leukemia) of over 100 µM. It also gave a TGI (HCC-2998 colon) of over 100 µM, a TGI (NCI-H522 lung) of over 100 µM and a TGI (SF-295 CNS) of over 100 µM. The TGI (OVCAR-8 ovarian) was over 100 µM, the TGI (SK-MEL-2 melanoma) was over 100 µM and the TGI (KM12 colon) was over 100 µM. The TGI (DU-145 prostate) was over 100 µM, the TGI (OVCAR-3 ovarian) was over 100 µM and the TGI (SF-539 CNS) was over 100 µM. The TGI (786-0 renal) was over 100 µM, the TGI (A549 NSCLC) was over 100 µM and the TGI (MDA-MB-435) was over 100 µM. For the same compound, the TGI (HCT-15 colon) was over 100 µM, the TGI (OVCAR-4 ovarian) was over 100 µM and the TGI (PC-3 prostate) was over 100 µM. The TGI (HL-60(TB) leukemia) was over 100 µM, the TGI (COLO 205 colon) was over 100 µM and the TGI (RPMI-8226 leukemia) was over 100 µM. For the same compound, the TGI (UACC-257 melanoma) was over 100 µM, the TGI (HCT-116 colon) was over 100 µM and the TGI (HS 578T breast) was over 100 µM. The TGI (MDA-N) was over 100 µM, the TGI (TK-10 renal) was over 100 µM and the TGI (CCRF-CEM leukemia) was over 100 µM. The TGI (M14 melanoma) was over 100 µM, the TGI (NCI/ADR-RES ovarian) was over 100 µM and the TGI (ACHN renal) was over 100 µM. For the same compound, the TGI (MALME-3M melanoma) was over 100 µM, the TGI (SW-620 colon) was over 100 µM and the TGI (UO-31 renal) was over 100 µM. For the same compound, the TGI (T-47D breast) was over 100 µM, the TGI (MDA-MB-231 breast) was over 100 µM and the TGI (NCI-H23 lung) was over 100 µM. It also gave a TGI (OVCAR-5 ovarian) of over 100 µM, a TGI (SF-268 CNS) of over 100 µM and a TGI (K-562 leukemia) of over 100 µM. The TGI (SR leukemia) was over 100 µM, the TGI (SK-MEL-28 melanoma) was over 100 µM and the TGI (SNB-19 CNS) was over 100 µM. For the same compound, the TGI (NCI-H460 lung) was over 100 µM, the TGI (HT29 colon) was over 100 µM and the TGI (SNB-75 CNS) was over 100 µM. It also gave a TGI (A498 renal) of over 100 µM, a TGI (MCF7 breast) of over 100 µM and a TGI (SN12C renal) of over 100 µM. The TGI (LOX IMVI melanoma) was over 100 µM, the TGI (EKVX NSCLC) was over 100 µM and the TGI (U251 CNS) was over 100 µM. For the same compound, the TGI (HOP-62 NSCLC) was over 100 µM.
